Data: article PMC3961306, “Comparison of the Cancer Gene Targeting and Biochemical Selectivities of All Targeted Kinase Inhibitors Approved for Clinical Use” (PLoS ONE, 2014)

What was measured:
Assay in all cases: Kinase profiling in a biochemical assay panel (mobility shift assays and ELISA), %-inhibition at 1 μM; selectivity entropy
[1] = biological target: panel of more than 300 wild-type and mutant kinases (313 kinase panel) (Homo sapiens, UniProt Q9H4B4)
[2] = biological target: panel of more than 300 wild-type and mutant kinases (313 kinase panel) (Homo sapiens, UniProt P45984)
Chain of panel of more than 300 wild-type and mutant kinases (313 kinase panel) (Homo sapiens, UniProt P45984) (P45984 whole entry, change not shown): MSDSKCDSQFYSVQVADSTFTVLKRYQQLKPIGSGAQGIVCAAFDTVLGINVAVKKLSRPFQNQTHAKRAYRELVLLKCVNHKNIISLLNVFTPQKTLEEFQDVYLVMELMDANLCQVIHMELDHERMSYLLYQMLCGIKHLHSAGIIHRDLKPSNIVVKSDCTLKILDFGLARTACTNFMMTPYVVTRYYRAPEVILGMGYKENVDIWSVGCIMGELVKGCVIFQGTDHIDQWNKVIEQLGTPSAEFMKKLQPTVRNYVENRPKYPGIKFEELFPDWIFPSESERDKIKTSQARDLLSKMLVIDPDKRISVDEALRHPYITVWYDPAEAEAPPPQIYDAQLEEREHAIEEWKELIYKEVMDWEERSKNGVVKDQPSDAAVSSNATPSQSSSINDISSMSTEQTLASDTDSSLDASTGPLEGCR

[3] = biological target: panel of more than 300 wild-type and mutant kinases (313 kinase panel) (Homo sapiens, UniProt Q13557)
Chain of panel of more than 300 wild-type and mutant kinases (313 kinase panel) (Homo sapiens, UniProt Q13557) (Q13557 whole entry, change not shown): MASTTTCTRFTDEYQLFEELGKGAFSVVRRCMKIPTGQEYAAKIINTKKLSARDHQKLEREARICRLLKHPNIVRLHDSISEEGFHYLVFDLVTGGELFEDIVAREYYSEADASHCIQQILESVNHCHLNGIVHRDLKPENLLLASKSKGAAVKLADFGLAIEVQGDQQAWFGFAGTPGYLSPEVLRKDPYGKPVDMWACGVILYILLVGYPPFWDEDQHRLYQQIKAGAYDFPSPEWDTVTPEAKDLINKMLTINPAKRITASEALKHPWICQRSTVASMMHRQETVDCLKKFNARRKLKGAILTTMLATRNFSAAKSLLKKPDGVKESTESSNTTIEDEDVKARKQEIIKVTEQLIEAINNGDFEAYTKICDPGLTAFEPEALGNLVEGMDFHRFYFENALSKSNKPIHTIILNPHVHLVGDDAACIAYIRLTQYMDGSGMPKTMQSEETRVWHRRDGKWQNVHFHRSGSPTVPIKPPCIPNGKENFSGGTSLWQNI

[4] = biological target: T1, panel of more than 300 wild-type and mutant kinases (313 kinase panel) (Homo sapiens, UniProt Q9UF33)
T1 sequence (Q9UF33 23-1036): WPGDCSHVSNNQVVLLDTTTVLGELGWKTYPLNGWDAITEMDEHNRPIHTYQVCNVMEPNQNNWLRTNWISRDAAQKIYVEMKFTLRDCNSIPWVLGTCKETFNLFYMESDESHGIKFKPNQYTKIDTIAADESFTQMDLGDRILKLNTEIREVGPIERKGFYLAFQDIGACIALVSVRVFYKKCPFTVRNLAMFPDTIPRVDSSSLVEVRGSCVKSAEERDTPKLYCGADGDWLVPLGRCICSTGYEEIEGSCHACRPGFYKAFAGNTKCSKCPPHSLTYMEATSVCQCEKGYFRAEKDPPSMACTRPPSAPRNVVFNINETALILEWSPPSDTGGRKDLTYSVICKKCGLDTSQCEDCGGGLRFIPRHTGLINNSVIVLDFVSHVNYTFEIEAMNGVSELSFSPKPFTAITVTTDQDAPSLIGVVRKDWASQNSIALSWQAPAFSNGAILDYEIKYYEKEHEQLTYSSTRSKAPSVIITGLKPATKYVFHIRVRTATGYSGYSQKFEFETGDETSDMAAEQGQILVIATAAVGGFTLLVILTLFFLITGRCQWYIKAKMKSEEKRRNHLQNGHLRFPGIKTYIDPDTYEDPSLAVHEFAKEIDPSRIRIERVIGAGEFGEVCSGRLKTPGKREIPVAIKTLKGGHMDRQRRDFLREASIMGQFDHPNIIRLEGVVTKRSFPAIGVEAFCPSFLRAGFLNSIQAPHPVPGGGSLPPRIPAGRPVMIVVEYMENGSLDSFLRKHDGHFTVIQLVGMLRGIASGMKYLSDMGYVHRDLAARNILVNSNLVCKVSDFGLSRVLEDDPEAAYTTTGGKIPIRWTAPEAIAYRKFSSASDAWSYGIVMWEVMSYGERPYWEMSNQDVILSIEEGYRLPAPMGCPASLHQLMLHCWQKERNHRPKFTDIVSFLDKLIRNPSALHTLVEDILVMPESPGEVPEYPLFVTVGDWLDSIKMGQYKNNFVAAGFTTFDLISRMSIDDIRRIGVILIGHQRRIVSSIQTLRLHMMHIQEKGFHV

[5] = biological target: panel of more than 300 wild-type and mutant kinases (313 kinase panel) (Homo sapiens, UniProt P54764)
Chain of panel of more than 300 wild-type and mutant kinases (313 kinase panel) (Homo sapiens, UniProt P54764) (P54764 20-986, change not shown): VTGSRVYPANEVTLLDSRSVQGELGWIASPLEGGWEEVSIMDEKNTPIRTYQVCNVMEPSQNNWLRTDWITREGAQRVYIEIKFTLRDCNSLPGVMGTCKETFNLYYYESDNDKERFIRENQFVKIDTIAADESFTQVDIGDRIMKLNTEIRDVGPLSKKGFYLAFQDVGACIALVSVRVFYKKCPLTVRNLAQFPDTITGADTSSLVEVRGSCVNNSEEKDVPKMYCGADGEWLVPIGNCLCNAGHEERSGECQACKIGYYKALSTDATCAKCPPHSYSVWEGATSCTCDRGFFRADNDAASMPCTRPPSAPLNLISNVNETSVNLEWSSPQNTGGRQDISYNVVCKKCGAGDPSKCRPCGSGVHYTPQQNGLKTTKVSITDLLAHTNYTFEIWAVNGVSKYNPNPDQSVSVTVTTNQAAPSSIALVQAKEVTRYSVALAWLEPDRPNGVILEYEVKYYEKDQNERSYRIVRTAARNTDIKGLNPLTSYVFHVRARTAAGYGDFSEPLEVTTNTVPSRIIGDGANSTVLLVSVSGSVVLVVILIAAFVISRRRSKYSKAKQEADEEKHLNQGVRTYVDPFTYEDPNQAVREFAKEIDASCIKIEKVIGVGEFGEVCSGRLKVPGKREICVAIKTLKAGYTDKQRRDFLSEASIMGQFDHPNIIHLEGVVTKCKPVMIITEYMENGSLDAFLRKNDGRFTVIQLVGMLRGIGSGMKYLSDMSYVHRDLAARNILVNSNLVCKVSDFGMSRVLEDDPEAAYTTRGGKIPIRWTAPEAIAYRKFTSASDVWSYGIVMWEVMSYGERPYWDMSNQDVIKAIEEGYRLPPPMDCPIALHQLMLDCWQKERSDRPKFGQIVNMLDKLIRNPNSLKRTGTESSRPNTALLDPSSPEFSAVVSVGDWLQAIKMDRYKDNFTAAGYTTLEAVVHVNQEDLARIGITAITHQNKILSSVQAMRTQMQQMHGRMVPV

[6] = biological target: T2, panel of more than 300 wild-type and mutant kinases (313 kinase panel) (Homo sapiens, UniProt Q9Y2U5)
T2 sequence (Q9Y2U5 1-619): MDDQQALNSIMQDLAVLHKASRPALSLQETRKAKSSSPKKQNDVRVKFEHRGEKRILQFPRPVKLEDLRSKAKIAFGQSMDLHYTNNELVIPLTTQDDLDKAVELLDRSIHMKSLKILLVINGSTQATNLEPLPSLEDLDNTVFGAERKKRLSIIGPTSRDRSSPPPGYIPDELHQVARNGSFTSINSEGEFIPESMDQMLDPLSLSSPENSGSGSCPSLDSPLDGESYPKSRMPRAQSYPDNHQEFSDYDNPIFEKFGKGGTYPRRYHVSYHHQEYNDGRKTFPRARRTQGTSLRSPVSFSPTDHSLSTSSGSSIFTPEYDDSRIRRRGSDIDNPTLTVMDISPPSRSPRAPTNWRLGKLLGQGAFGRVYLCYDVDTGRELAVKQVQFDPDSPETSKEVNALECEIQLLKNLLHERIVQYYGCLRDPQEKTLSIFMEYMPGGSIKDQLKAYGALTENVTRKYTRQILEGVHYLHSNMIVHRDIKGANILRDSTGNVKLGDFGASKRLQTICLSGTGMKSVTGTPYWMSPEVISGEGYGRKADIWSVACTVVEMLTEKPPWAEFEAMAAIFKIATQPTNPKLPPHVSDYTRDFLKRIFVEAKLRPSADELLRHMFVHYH

[7] = kinase MAP3K2, compound at 1 μM

Chain of panel of more than 300 wild-type and mutant kinases (313 kinase panel) (Homo sapiens, UniProt Q9H4B4) (Q9H4B4 whole entry, change not shown): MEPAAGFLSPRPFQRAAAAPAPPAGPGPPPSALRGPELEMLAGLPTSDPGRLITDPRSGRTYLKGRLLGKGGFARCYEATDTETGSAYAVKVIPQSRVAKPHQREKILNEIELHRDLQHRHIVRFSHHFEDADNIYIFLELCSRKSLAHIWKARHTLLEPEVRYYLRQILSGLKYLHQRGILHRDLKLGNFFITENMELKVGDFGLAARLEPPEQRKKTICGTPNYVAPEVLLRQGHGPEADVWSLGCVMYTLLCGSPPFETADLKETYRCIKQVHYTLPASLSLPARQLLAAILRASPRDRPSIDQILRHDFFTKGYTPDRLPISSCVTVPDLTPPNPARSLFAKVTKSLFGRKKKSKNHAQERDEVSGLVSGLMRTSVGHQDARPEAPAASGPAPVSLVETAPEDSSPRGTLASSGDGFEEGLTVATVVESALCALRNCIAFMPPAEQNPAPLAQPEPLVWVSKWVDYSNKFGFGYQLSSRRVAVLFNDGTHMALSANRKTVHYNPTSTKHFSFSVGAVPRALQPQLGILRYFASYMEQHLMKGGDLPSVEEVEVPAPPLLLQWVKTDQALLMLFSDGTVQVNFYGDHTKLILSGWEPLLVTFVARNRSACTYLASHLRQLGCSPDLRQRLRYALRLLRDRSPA

| SMILES | %-inhibition of PLK3 ([1]; kinase PLK3, 1 μM) [%] | %-inhibition of JNK2 ([2]; kinase JNK2, compound at 1 μM) [%] | %-inhibition, CaMK2δ ([3]; kinase CaMK2δ, 1 μM compound) [%] | %-inhibition of EPHA6 ([4]; kinase EPHA6, compound at 1 μM) [%] | %-inhibition of EPHA4 ([5]; kinase EPHA4, compound at 1 μM) [%] | %-inhibition of MAP3K2 [6, 7] [%] | %-inhibition of PLK3 ([1]; 1 µM) [%] | %-inhibition of JNK2 ([2]; 1 µM) [%] | %-inhibition of MAP3K2 ([6]; 1 µM) [%] | %-inhibition, CaMK2δ ([3]; 1 µM) [%] | %-inhibition of EPHA6 ([4]; 1 µM) [%] | %-inhibition of EPHA4 ([5]; 1 µM) [%] |
| --- | --- | --- | --- | --- | --- | --- | --- | --- | --- | --- | --- | --- |
| C[C@@H](Oc1cc(-c2cnn(C3CCNCC3)c2)cnc1N)c1c(Cl)ccc(F)c1Cl [crizotinib] | -2.24 | -2.59 | 4 | 100 | 58 |  |  |  |  |  |  |  |
| CC(C)(C)c1nc(-c2cccc(NS(=O)(=O)c3c(F)cccc3F)c2F)c(-c2ccnc(N)n2)s1 [dabrafenib] |  | -0.947 | -0.23 | 88 | 12 | 71 |  |  |  |  |  |  |
| COc1cc2c(Nc3ccc(Br)cc3F)ncnc2cc1OCC1CCN(C)CC1 [vandetanib] | -6 | -4 | 10 |  |  | 14 |  |  |  |  |  |  |
| O=S(=O)(c1cccc2cnccc12)N1CCCNCC1 [fasudil] | -4.66 | -5 | 3.46 | 6 | -6 | -15 |  |  |  |  |  |  |
| C#Cc1cccc(Nc2ncnc3cc(OCCOC)c(OCCOC)cc23)c1 [erlotinib] |  |  |  |  |  |  | 6 | 13 | 14 | -11 | 69 | 32 |
| COc1cc2nccc(Oc3ccc(NC(=O)C4(C(=O)Nc5ccc(F)cc5)CC4)cc3)c2cc1OC [cabozantinib] | -1.07 | 4 | 0.942 | 100 | 97 | 9 |  |  |  |  |  |  |
| Cc1ccc(C(=O)Nc2ccc(CN3CCN(C)CC3)c(C(F)(F)F)c2)cc1C#Cc1cnc2cccnn12 [ponatinib] | -11 |  |  | 103 |  | 79 |  |  |  |  |  |  |
| CCCS(=O)(=O)Nc1ccc(F)c(C(=O)c2c[nH]c3ncc(-c4ccc(Cl)cc4)cc23)c1F [vemurafenib] | -2.83 | -0.0632 | -0.235 | 37 | -2 | 21 |  |  |  |  |  |  |
| Cc1cn(-c2cc(NC(=O)c3ccc(C)c(Nc4nccc(-c5cccnc5)n4)c3)cc(C(F)(F)F)c2)cn1 [nilotinib] | 26 | 9 |  | 30 |  | -26 |  |  |  | 1.2 |  |  |
| CS(=O)(=O)CCNCc1ccc(-c2ccc3ncnc(Nc4ccc(OCc5cccc(F)c5)c(Cl)c4)c3c2)o1 [lapatinib] | 6 | -8 | -33 | 20 | -0.823 | 5.6 |  |  |  |  |  |  |
| CNC(=O)c1cc(Oc2ccc(NC(=O)Nc3ccc(Cl)c(C(F)(F)F)c3)c(F)c2)ccn1 [regorafenib] | 2.24 | 57 | 1.53 | 103 | 92 | 19 |  |  |  |  |  |  |
| Cc1nc(Nc2ncc(C(=O)Nc3c(C)cccc3Cl)s2)cc(N2CCN(CCO)CC2)n1 [dasatinib] | 10 |  | -7.61 |  |  |  |  |  |  |  |  |  |
| Cc1ccc(Nc2nccc(N(C)c3ccc4c(C)n(C)nc4c3)n2)cc1S(N)(=O)=O [pazopanib] | 9 |  | 1.54 | 24 | 22 | 46 |  |  |  |  |  |  |
| N#CC[C@H](C1CCCC1)n1cc(-c2ncnc3[nH]ccc23)cn1 [ruxolitinib] | 13 | -6 | 81 | -1.06 | 12 |  |  |  | 75 |  |  |  |
| CO[C@H]1C[C@@H]2CC[C@@H](C)[C@@](O)(O2)C(=O)C(=O)N2CCCC[C@H]2C(=O)O[C@H]([C@H](C)C[C@@H]2CC[C@@H](OCCO)[C@H](OC)C2)CC(=O)[C@H](C)/C=C(\C)[C@@H](O)[C@@H](OC)C(=O)[C@H](C)C[C@H](C)/C=C/C=C/C=C/1C [everolimus] | -1.66 | -5.37 | -2.12 | 2.18 | -2.61 | 7.56 |  |  |  |  |  |  |
| CC(=O)Nc1cccc(-n2c(=O)n(C3CC3)c(=O)c3c(Nc4ccc(I)cc4F)n(C)c(=O)c(C)c32)c1 [trametinib] | -6.59 | -4.73 | -2.19 |  | -5.3 | 0.801 |  |  |  |  | -2.51 |  |
| COc1cc(Nc2c(C#N)cnc3cc(OCCCN4CCN(C)CC4)c(OC)cc23)c(Cl)cc1Cl [bosutinib] | 0.877 |  |  | 102 |  |  |  |  | 93 |  |  |  |
| CO[C@H]1C[C@@H]2CC[C@@H](C)[C@@](O)(O2)C(=O)C(=O)N2CCCC[C@H]2C(=O)O[C@H]([C@H](C)C[C@@H]2CC[C@@H](OC(=O)C(C)(CO)CO)[C@H](OC)C2)CC(=O)[C@H](C)/C=C(\C)[C@@H](O)[C@@H](OC)C(=O)[C@H](C)C[C@H](C)/C=C/C=C/C=C/1C [temsirolimus] | -4.39 | -4.61 | -4 | 0.437 | -4.51 | 5.58 |  |  |  |  |  |  |
